One compound from patent US8703964B2, “Bendamustine cyclopolysaccharide compositions” (Supratek Pharma Inc., priority 2009, dated 2014) can be followed below.

SMILES strings stand for the structures.

Data set [1] can be described thus: Pharmacokinetics of bendamustine dosed to rats, composition with SBECD and protamine sulphate (Example 13). The format is in vivo. As to conditions: female, Sprague-Dawley, rat, plasma, iv, i.v. 10 mg/kg, read-out: Concentration of bendamustine in rat plasma, Mean (SEM). Here is the method: Control: 2.5 mg/mL bendamustine hydrochloride, 4.25 mg/mL of mannitol in 0.9% NaCl; dose of 10 mg/kg
Inventive Composition: 2.5 mg/mL bendamustine hydrochloride, 40% w/w sodium sulfobutyl ether β-cyclodextrin, 3% protamine sulfate, 4.3 mg/g mannitol in water (produced according to the process described in Example 10); dose of 10 mg/kg.
Female Sprague-Dawley rats (250-350 g). The animals were kept three per cage with an air filter cover under light (12 h light/dark cycle, light on at 06 h00) and controlled temperature of 22° C.+/−1° C. All manipulations with the animals were performed under a sterilized laminar hood. The animals had ad libitum access to Purina mouse chow and water. The animals were fasted overnight and anesthetized, before dosing. Dosing and Sampling: Bendamustine composition and control were administered intravenously to rats in tail vein. After time intervals 5, 15, 30, 45 min, 1, 1.5, 2 and 3 hrs post-injection, the blood samples were collected. The rats were anesthetized by general inhalation of isoflurane. The blood samples were collected from the jugular vein with heparinized tube and kept on ice. Blood was immediately centrifuged, and plasma was separated. The plasma samples were immediately extracted. Sample Extraction and Analysis: The plasma samples 0.100 mL were transferred to plastic tubes. The samples were extracted with 0.400 mL of 100 mM HCl in acetonitrile while being shaken vigorously for 30 seconds. The samples were centrifuged at 10000 RPM for 5 minutes. The supernatant was separated. The samples were frozen in dry ice and kept at −80° C. until HPLC analysis. 20 microliter aliquots were injected into HPLC for analysis. The HPLC conditions: C18 reversed phase column 50×4.6 mm, Symmetry/Shield 3.5 micrometer Column temperature 30° C. Flow rate 1.5 mL/min Injection volume 20 microliters Fluorescence detection at wavelengths: excitation 327 nm, emission 420 nm Mobile phase: Buffer A: 5% acetonitrile 0.1% TFA Buffer B: 90% acetonitrile 0.1% TFA Run time: 10 min The improved pharmacokinetic profiles of Bendamustine for tested composition versus the control is shown in Table 3 below.

The subject of data set [2] is Human breast carcinoma MDA-MB 231 s.c. solid tumors. Description: Human breast carcinoma MDA-MB 231 s.c. solid tumors in nude mice (Example 29). As to conditions: for Tumor weight after treatment, Average (SEM): 30 mg/kg days 1, 2, 9, 10. It counts as in vivo, balb/c nu/nu mice. Here is the method: balb/c mice aged 5 to 6 weeks were purchased from Charles River Canada Inc. The animals were kept 5 per cage with an air filter cover under light (12 light/dark cycle, light on at 6 H00) and temperature (22° C.±1° C.)-controlled environment. All manipulations of animals were performed under a sterilized laminar hood. The animals had ad libitum access to Purina mouse chow (Pro Lab PMH 4018, Trademark of Agway, Syracuse, N.Y.) and water. These animal studies were conducted according to the “Guidelines for Care and Use of Experimental Animals”. Tumor Cell Culture: Human breast cancer cells MDA-MB 231 were cultured in the appropriated culture medium. The cells were harvested in their logarithmic growth phase for the preparation of tumor implantation. Tumor Implantation: Human tumor or myeloma cells (2.5 to 5.0×10^6 cells) were implanted subcutaneously in 0.200 mL of medium containing 30% Matrigel on the two flanks of balb/c nu/nu mice through a 1 to 2 cm long 20-gauge needle. Treatments: 2 to 3 weeks after tumor cell implantation, animals that developed s.c. solid tumors were selected and divided into several homogeneous groups (n=5 animals per group or dose) with respect to tumor size (0.5 to 0.8 cm in diameter). The treatments were performed next day. The animals were dosed with the following dosing solutions. Control: (0.9%, NaCl) Compositions:
Subcutaneous solid tumor measurements were performed on the day of first injection and at 3- to 4-day intervals thereafter. The two largest perpendicular diameters of each tumor were measured with calipers and tumor sizes were estimated using the formula: TV=L×W/2 where TV: tumor volume; L: length; W: width. The body weights of animals were also noted.
The experiment was performed employing the procedures described in Example 28, using the following compositions for treatment:
non-formulated Bendamustine, (30 mg/kg)
Bendamustine (30 mg/kg) in 20% SBECD, 1% LMWP (formulated BM)
The treatment was performed on days 1, 2, 9, and 10.

The next data set deals with H69 cells. Description: Cytotoxicity of bendamustine composition comprising SBECD and LMWP, WST-1 (Example 24). The format is cell-based. As to conditions: Homo sapiens, NCI-H69, 72 h, read-out: drug cytotoxicity (WST-1), Table 8. The procedure: (§1) RPMI8226, H69, MDA-MB-231, and H460 cells were maintained in appropriate medium, containing 10% FBS and antibiotics. 24 h after plating, bendamustine, and bendamustine formulated in SBECD/LMWP (40 mg/ml BM in 20% SBECD, 1% LMWP) were added in different concentrations to cell cultures and cells were grown for three days. The drug cytotoxicity was evaluated using WST-1 procedure.

The next data set concerns H460 cells. Described as above. It counts as cell-based. As to conditions: Homo sapiens, NCI-H460, 72 h, read-out: drug cytotoxicity (WST-1), Table 8. The procedure:
as §1
A general note: Formazan colour is commonly taken as a measure of viable cells.

The subject of the next data set is MDA-MB-231 cells. The description is as above. The format is cell-based. As to conditions: Homo sapiens, MDA-MB-231, 72 h, read-out: drug cytotoxicity (WST-1), Table 8. Here is the method: as §1
The next data set has as its system RPMI8226 cells. Described as above. It counts as cell-based. As to conditions: Homo sapiens, RPMI-8226, 72 h, read-out: drug cytotoxicity (WST-1), Table 8. The procedure:
as §1

In the case of `Cn1c(CCCC(=O)O)nc2cc(N(CCCl)CCCl)ccc21` [BM, 4-[5-[bis(2-chloroethyl)amino]-1-methylbenzimidazol-2-yl]butanoic acid], the concentration at 0.08 h in data set [1] (0.08 h post injection) was determined as 6040 ng/mL. Also, in data set [1] (0.25 h post injection), the concentration at 0.25 h came out at 2430 ng/mL. Besides, the concentration at 0.5 h in data set [1] (0.5 h post injection) was 520 ng/mL. Further, in data set [1] (0.75 h post injection), the concentration at 0.75 h worked out at 145 ng/mL. For the same compound, in data set [1] (1 h post injection), the concentration at 1 h was found to be 48 ng/mL. In data set [1] (1.5 h post injection), the concentration at 1.5 h was determined as 8 ng/mL. In addition, the concentration at 2 h in data set [1] (2 h post injection) worked out at 2 ng/mL. Besides, the concentration at 3 h in data set [1] (3 h post injection) turned out to be 0 ng/mL. Also, the “Tumor weight after treatment, Average (SEM)” value in data set [2] (day 0) is on record as 0.139 (0.013) g; in data set [2] (day 2), 0.178 (0.027) g; in data set [2] (day 4), 0.202 (0.039) g; in data set [2] (day 6), 0.259 (0.049) g; in data set [2] (day 8), 0.295 (0.054) g; in data set [2] (day 10) it was 0.319 (0.044) g. Further, the “Tumor weight after treatment, Average (SEM)” value in data set [2] (day 12) is reported as 0.361 (0.050) g; in data set [2] (day 14) it was 0.417 (0.054) g; in data set [2] (day 16) it was 0.487 (0.067) g. Also, in data set [2] (30 mg/kg, Day 1, 2, 9, 10), the “Inhibition % vs control (on day 16)” value amounted to 38.3%. Besides, the “Tumor weight on day 16” value in data set [2] (30 mg/kg, Day 1, 2, 9, 10, right flank tumors only) was found to be 0.487 ± 0.067 g. The IC50 in the data set on H69 cells is 254 µM; in the data set with H460 cells, 601 µM; in the data set with MDA-MB-231 cells it was 600 µM; in the data set on RPMI8226 cells, 117 µM.
